One data set has as its target T1, Adenosine receptor A1 (Homo sapiens, UniProt P30542).
T1 sequence (P30542 whole entry): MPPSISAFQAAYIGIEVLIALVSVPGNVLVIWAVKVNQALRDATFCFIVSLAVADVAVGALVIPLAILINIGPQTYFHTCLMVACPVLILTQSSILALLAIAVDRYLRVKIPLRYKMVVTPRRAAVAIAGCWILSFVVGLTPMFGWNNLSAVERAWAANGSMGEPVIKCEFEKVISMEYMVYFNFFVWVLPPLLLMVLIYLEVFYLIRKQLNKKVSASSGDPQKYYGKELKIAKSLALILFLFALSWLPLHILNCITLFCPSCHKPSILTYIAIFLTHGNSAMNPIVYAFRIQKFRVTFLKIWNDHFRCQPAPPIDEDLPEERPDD
Put plainly: Displacement of [3H]N6-phenylisopropyladenosine from recombinant human A1AR expressed in CHO cell membranes after 60 mins by liquid scintillation counting method.

A short description of data set [1]: Initial plasma concentration in Sprague-Dawley rat at 1 mg/kg, iv administered as single dose. Format: ADME, organism-based. As to conditions: in vivo.
A short description of data set [2]: Apparent permeability across apical side to basolateral side in human Caco2 cells. Format: ADME, cell-based. To be noted: caco-2.
In data set [3] the target is T2, 5-hydroxytryptamine receptor 2C (Homo sapiens, UniProt P28335).
T2 sequence (P28335 whole entry): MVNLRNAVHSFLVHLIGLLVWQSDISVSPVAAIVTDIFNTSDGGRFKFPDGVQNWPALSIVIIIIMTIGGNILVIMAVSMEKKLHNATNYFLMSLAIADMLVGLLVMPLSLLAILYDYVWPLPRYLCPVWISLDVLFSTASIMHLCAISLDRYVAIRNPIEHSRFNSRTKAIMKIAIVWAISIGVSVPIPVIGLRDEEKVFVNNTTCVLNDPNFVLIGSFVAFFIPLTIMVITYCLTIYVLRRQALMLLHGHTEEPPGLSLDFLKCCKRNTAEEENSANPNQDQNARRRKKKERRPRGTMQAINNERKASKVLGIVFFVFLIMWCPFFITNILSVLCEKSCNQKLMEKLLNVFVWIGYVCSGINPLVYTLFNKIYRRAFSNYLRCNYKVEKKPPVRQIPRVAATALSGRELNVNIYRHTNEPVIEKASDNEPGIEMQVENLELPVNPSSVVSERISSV
Put plainly: Displacement of [3H]mesulergine from human 5-HT2CR expressed in Flp-In HEK cell membranes incubated for 90 mins under dark condition by microbeta scintillation counting method. Also on record: species or system HEK293. (In a radioligand displacement assay an active substance lowers the binding of a labelled ligand.)

Data set [4] in a line: Volume of distribution at steady state in Sprague-Dawley rat at 1 mg/kg, iv administered as single dose. It is filed as ADME, organism-based. To be noted: in vivo.
A short description of data set [5]: Intrinsic clearance in human liver microsomes. It is filed as ADME. In general terms: Microsomes from liver hold many membrane-bound enzymes, among them those of drug oxidation.
Data set [6] concerns the target 5-hydroxytryptamine receptor 2B (Homo sapiens, UniProt P41595). It is filed as functional, cell-based, HEK293.
The target in data set [7] is T3, 5-hydroxytryptamine receptor 2C (Homo sapiens) (UniProt P28335).
T3 sequence (whole entry): T2 sequence (P28335 whole entry)
Nature of the data set: Displacement of [3H]mesulergine from human 5-HT2CR expressed in Flp-In HEK cell membranes at 10 uM incubated for 90 mins under dark condition by microbeta scintillation counting method relative to control. As to conditions: HEK293.

The nature of data set [8]: Growth inhibition of human HepG2 cells at 30 uM. Format: cell-based. To be noted: read-out: GI.
Data set [9] can be described thus: Metabolic stability in human liver microsomes assessed as compound remaining measured after 1 hr in presence of cofactor. Format: ADME.
Data set [10] is described as follows: Apparent permeability across basolateral side to apical side in human Caco2 cells. Format: ADME, cell-based. To be noted: caco-2.
Data set [11] can be described thus: Half life of compound in fasted state simulated intestinal fluid at pH 6.5. Format: ADME. To be noted: simulated gi fluid.
Data set [12] is described as follows: Metabolic stability in mouse plasma assessed as compound remaining measured after 120 mins. To be noted: 2 h. It is filed as ADME, cell-free.
Data set [13] has as its target T4, 5-hydroxytryptamine receptor 3A (Homo sapiens) (UniProt P46098).
T4 sequence (whole entry): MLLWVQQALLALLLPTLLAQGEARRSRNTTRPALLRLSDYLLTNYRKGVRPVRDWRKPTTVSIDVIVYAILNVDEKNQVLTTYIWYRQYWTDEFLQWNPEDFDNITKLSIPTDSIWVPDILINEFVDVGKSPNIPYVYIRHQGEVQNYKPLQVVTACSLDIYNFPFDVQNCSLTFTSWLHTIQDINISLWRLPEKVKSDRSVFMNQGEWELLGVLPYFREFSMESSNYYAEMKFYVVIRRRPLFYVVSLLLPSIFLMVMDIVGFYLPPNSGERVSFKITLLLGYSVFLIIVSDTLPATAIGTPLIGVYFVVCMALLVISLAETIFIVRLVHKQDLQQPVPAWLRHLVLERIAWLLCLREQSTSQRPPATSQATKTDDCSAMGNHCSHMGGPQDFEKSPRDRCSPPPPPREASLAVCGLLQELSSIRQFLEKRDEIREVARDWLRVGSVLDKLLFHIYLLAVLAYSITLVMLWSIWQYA
Put plainly: Displacement of [3H]GR65630 from human 5-HT3 receptor expressed in HEK-T cell membranes at 10 uM incubated for 90 mins under dark condition by microbeta scintillation counting method relative to control.

Data set [14] in a line: Half life in rat liver microsomes. It is filed as ADME.
In the next data set the target is Cytochrome P450 2C9 (Homo sapiens, UniProt P11712). Nature of the data set: Inhibition of CYP2C9 (unknown origin). Format: ADME.
Data set [15] addresses 5-hydroxytryptamine receptor 1E (Homo sapiens) (UniProt P28566). Nature of the data set: Displacement of [3H]5-HT from human 5-HT1E receptor expressed in HEK cell membranes at 10 uM incubated for 90 mins under dark condition by microbeta scintillation counting method relative to control. To be noted: HEK293.
Data set [16] is described as follows: Half life of compound in fasted state simulated gastric fluid at pH 1.6. It is filed as ADME, tissue-based, Stomach. As to conditions: simulated gi fluid.
A short description of data set [17]: Stability of compound in pH 1.6 fasted state simulated gastric fluid assessed as compound remaining measured after 2 hrs. Format: ADME. To be noted: read-out: Stability.
For data set [18], the target named is 5-hydroxytryptamine receptor 1D (Homo sapiens) (UniProt P28221). Put plainly: Displacement of [3H]5-CT from human 5-HT1D receptor expressed in HEK-T cell membranes at 10 uM incubated for 90 mins under dark condition by microbeta scintillation counting method relative to control.
Data set [19] can be described thus: Half life in Sprague-Dawley rat at 1 mg/kg, iv administered as single dose. It is filed as ADME, organism-based. To be noted: in vivo.
Data set [20] can be described thus: Half life in mouse liver microsomes. Format: ADME.
A short description of data set [21]: Metabolic stability in human plasma assessed as compound remaining measured after 120 mins. Format: ADME, cell-free. As to conditions: read-out: Stability.
Another data set deals with Adenosine receptor A2a (Homo sapiens, UniProt P29274). Put plainly: Displacement of [3 H]2-[p-(2-carboxyethyl)phenyl-ethylamino]-5'-N-ethylcarboxamidoadenosine from recombinant human adenosine receptor A2A expressed in HEK293 cell membranes after 60 mins by liquid scintillation counting method.
Data set [22] in a line: Metabolic stability in rat plasma assessed as compound remaining measured after 120 mins. Format: ADME, cell-free. To be noted: 2 h.
A short description of data set [23]: Half life in human liver microsomes. It is filed as ADME.
Data set [24] addresses T5, Adenosine receptor A1 (Homo sapiens) (UniProt P30542).
T5 sequence (whole entry): T1 sequence (P30542 whole entry)
Put plainly: Agonist activity at recombinant human A1AR expressed in CHO cells assessed as inhibition of forskolin-stimulated cAMP accumulation at 10 uM after 15 mins relative to N6-cyclopentyladenosine. Format: functional, cell-based. In general terms: Changes in cAMP serve as a functional read-out for many G protein-coupled receptors.

Structures are written as SMILES.

Sequence of 5-hydroxytryptamine receptor 1D (Homo sapiens) (P28221 whole entry): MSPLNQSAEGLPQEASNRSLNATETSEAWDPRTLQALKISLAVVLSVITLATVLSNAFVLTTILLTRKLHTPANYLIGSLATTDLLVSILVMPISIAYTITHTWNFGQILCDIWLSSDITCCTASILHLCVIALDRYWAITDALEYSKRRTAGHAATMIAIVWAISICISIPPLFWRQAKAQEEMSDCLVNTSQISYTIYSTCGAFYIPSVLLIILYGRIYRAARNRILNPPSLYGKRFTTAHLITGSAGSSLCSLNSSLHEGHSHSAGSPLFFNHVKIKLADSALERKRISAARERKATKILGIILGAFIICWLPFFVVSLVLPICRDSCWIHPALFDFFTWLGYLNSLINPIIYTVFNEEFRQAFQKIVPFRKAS
Sequence of 5-hydroxytryptamine receptor 1E (Homo sapiens) (P28566 whole entry): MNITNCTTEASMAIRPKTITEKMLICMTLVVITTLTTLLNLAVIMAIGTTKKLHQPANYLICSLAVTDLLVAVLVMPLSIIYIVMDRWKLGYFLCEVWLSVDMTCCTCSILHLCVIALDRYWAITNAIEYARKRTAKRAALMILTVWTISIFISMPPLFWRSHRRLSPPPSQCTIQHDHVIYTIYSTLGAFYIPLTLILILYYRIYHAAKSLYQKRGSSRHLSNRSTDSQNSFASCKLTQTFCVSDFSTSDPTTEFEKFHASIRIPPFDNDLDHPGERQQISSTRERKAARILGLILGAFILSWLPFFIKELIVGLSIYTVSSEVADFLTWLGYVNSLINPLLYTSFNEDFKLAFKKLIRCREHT
Sequence of 5-hydroxytryptamine receptor 2B (P41595 whole entry): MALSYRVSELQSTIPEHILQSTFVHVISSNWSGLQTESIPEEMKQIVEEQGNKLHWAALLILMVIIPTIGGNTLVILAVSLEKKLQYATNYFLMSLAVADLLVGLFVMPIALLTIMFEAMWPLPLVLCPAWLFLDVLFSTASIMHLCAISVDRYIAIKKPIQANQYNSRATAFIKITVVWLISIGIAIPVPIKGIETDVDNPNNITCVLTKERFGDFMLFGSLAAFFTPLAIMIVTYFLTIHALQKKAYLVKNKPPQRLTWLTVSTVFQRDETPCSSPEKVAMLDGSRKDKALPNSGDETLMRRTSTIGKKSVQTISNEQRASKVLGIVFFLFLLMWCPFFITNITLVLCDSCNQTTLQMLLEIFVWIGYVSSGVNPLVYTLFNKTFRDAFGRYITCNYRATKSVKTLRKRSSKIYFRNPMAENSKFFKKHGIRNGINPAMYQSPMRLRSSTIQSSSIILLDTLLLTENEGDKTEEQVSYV
Sequence of Adenosine receptor A2a (P29274 whole entry): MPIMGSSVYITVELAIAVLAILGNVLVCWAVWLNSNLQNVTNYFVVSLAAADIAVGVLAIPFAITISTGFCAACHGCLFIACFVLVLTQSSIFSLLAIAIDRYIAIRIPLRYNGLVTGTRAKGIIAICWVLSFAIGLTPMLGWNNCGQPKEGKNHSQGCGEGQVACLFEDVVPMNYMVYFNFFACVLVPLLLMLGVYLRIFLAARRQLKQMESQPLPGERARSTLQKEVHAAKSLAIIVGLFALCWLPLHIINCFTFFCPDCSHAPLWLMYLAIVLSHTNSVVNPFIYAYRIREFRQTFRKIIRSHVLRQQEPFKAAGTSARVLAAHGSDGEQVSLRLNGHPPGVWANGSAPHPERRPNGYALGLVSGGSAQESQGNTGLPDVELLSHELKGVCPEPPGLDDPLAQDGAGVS
Sequence of Cytochrome P450 2C9 (P11712 whole entry): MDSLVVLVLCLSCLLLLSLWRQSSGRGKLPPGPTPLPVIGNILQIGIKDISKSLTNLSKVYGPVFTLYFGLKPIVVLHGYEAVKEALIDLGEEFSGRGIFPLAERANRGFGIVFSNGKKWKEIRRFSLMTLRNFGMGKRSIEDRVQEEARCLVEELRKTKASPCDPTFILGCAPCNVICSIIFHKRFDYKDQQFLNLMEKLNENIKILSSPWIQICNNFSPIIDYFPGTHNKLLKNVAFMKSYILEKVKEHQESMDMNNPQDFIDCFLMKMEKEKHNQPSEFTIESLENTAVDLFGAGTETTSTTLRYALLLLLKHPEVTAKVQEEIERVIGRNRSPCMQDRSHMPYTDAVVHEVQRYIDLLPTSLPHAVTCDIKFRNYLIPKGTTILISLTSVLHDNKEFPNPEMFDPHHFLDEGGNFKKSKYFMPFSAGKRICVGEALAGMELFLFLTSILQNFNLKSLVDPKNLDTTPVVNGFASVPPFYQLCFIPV

What is called Ki is a dissociation constant, usually derived from enzyme kinetics or from competition with a known ligand. For orientation: Papp means the rate of passage across a membrane or cell layer, normalised by area and donor concentration. The term Vdss denotes the apparent volume that relates the amount in the body to the concentration in plasma or blood. A higher Vdss goes with wide distribution into tissue. For orientation: IC50 means the concentration needed to halve the response being measured. A high value points to a need for much substance. Regarding `CNC(=O)[C@@]12C[C@@H]1[C@@H](n1cnc3c(NC(C4CC4)C4CC4)nc(Cl)nc31)[C@H](O)[C@@H]2O`, the inhibition constant (Ki) stood at 110 nM on Adenosine receptor A1, 269 nM in [3], 4.4 nM in data set [6] and 4.32 µM on Adenosine receptor A2a. The molecule also had a C0 in data set [1] of 1070 ng/mL. The apparent permeability (Papp) turned out to be 4.73 ×10⁻⁶ cm/s in data set [2] and 46.21 ×10⁻⁶ cm/s in data set [10]. In addition, the distribution volume (Vdss) in data set [4] came to 3.16 L/kg. Besides, the CLH in data set [5] worked out at 1.75 µL/min/mg. The inhibition in data set [7] is greater than 50%; in data set [13], less than 50%; in data set [15], less than 50%; in [18], less than 50%. Further, in data set [8], the inhibition at 30 µM is less than 30%. Further, the Stability was 87% in data set [9], 95% in data set [12] and 88.7% in data set [22]. In addition, the t1/2 was greater than 480 min in [11]; greater than 140 min in data set [14]; 132 min in data set [16]; 2.89 h in [19]; greater than 145 min in [20]; 130 min in data set [23]. This molecule had an IC50 against Cytochrome P450 2C9 greater than 30 µM. Further, the figures for the remaining at 2 h in data set [17] and in [21] were 50% and 100 to 104%, respectively.
For `COC(=O)[C@@]12C[C@@H]1[C@@H](n1cnc3c(NC(C4CC4)C4CC4)nc(Cl)nc31)[C@H](O)[C@@H]2O`, the Ki amounted to 437 nM on Adenosine receptor A1, 117 nM in data set [3] and 3.2 nM in [6]. This molecule also gave a C0 in data set [1] of 349 ng/mL. The Papp in data set [2] is 18.47 ×10⁻⁶ cm/s; in data set [10] it was 30.59 ×10⁻⁶ cm/s. The molecule further registered a distribution volume (Vdss) in [4] of 4.62 L/kg. This molecule also came in with a CLH in data set [5] of 0.77 µL/min/mg. Further, the inhibition is greater than 50% in data set [7], less than 50% in data set [13], less than 50% in [15] and less than 50% in data set [18]. Also, in data set [8], the inhibition at 30 µM was less than 30%. In addition, the Stability in [9] was 94%; in data set [12] it was 61%; in data set [22], 70.9%. The t1/2 in data set [11] is greater than 480 min; in data set [14], greater than 140 min; in data set [16], 125 min; in data set [19], 3.56 h; in data set [20] it was greater than 140 min; in data set [23] it was greater than 140 min. Half-maximal inhibition on Cytochrome P450 2C9 (IC50) required 20.1 µM. Also, the remaining at 2 h is 50% in [17] and 95.3 to 100% in [21].
In the case of `OC[C@@]12C[C@@H]1[C@@H](n1cnc3c(NC(C4CC4)C4CC4)nc(Cl)nc31)[C@H](O)[C@@H]2O`, the Ki on Adenosine receptor A1 is 39 nM; in data set [3], 84 nM; at Adenosine receptor A2a, 2.2 µM. For the same molecule, the inhibition is greater than 50% in data set [7], less than 50% in data set [13], less than 50% in data set [15] and less than 50% in data set [18]. Also, the Imax in data set [24] worked out at 104%.
As for `CCOC(=O)[C@@]12C[C@@H]1[C@@H](n1cnc3c(NC(C4CC4)C4CC4)nc(Cl)nc31)[C@H](O)[C@@H]2O`, the Ki turned out to be 360 nM on Adenosine receptor A1, 30 nM in data set [3] and 1.8 nM in [6]. For the same molecule, the inhibition in [7] was greater than 50%; in [13], less than 50%; in [15], less than 50%; in data set [18], less than 50%. The Imax in data set [24] was 89%.

The values above are taken from ChEMBL document CHEMBL3862033 (J Med Chem, 2016).
